Key:
Trypanosoma cruzi = experiment: Trypanocidal activity against Trypanosoma cruzi Y bloodstream trypomastigotes in presence of 10% mouse blood assessed as induction of parasite lysis incubated for 24 hrs by Neubauer chamber based cell counting method; assay type: functional, organism-based
[1] = Toxicity against mouse HMC incubated for 24 hrs; details: HMC cells, read-out: LC50
[2] = Selectivity index, ratio of LC50 for mouse HMC to IC50 for Trypanosoma cruzi Y bloodstream trypomastigotes

CC1(C)OC2=C(C(=O)C(=O)c3ccccc32)C1Sc1ccccc1 (stereo not given)
IC50 (Trypanosoma cruzi): 32.3 µM | CC50 at 24 h [1]: 17.5 µM | Ratio LC50/IC50 [2]: 0.54

CC1(C)OC2=C(C(=O)C(=O)c3ccccc32)C1Sc1c(F)c(F)c(F)c(F)c1F (stereo not given)
IC50 (Trypanosoma cruzi): 183 µM

Cc1cccc(SC2C3=C(OC2(C)C)c2ccccc2C(=O)C3=O)c1 (stereo not given)
IC50 (Trypanosoma cruzi): 83.6 µM | CC50 at 24 h [1]: 25.8 µM | Ratio LC50/IC50 [2]: 0.31

Cc1ccc(SC2C3=C(OC2(C)C)c2ccccc2C(=O)C3=O)cc1 (stereo not given)
IC50 (Trypanosoma cruzi): 59.5 µM | CC50 at 24 h [1]: 20.5 µM | Ratio LC50/IC50 [2]: 0.34

COc1ccc(SC2C3=C(OC2(C)C)c2ccccc2C(=O)C3=O)cc1 (stereo not given)
IC50 (Trypanosoma cruzi): 158 µM

CC1(C)OC2=C(C(=O)C(=O)c3ccccc32)C1Sc1ccc(F)cc1 (stereo not given)
IC50 (Trypanosoma cruzi): 165 µM

CC1(C)OC2=C(C(=O)C(=O)c3ccccc32)C1Sc1ccc(Cl)cc1 (stereo not given)
IC50 (Trypanosoma cruzi): 9.2 µM | CC50 at 24 h [1]: 38.9 µM | Ratio LC50/IC50 [2]: 4.23

From ChEMBL document CHEMBL3593167, “Synthesis and anti-Trypanosoma cruzi activity of new 3-phenylthio-nor-β-lapachone derivatives” (Bioorg Med Chem, 2015)
